Laboratory results as given in ChEMBL document CHEMBL1144826, “Selective vasodilatation effect of sargahydroquinoic acid, an active constituent of Sargassum micracanthum, on the basilar arteries of rabbits” (Bioorg Med Chem Lett, 2008).

Key:
[1] = Vasodialative effect on high K+-induced vasoconstriction in rabbit carotid artery; type: functional, Oryctolagus cuniculus
[2] = Vasodialative effect on high K+-induced vasoconstriction in rabbit basilar artery; type: functional, tissue-based, Oryctolagus cuniculus
[3] = Selectivity index, ratio of EC50 for vasodialative effect on high K+-induced vasoconstriction in rabbit carotid artery to basilar artery; type: functional, Oryctolagus cuniculus

EC50 [1]: 140 µM | EC50 [2]: 11.8 µM
Compound: CC(C)=CCC/C(=C/CC/C(C)=C/CC/C(C)=C/Cc1cc(O)cc(C)c1O)C(=O)O [SARGAHYDROQUINOIC ACID]
Ratio EC50 [3]: 11.9
